# Experiment: Toxicity against rabbit RBC assessed as hemolytic activity after 15 mins
# Format: cell-based, Oryctolagus cuniculus
# Settings: erythrocyte, 0.25 h
row,Structure (SMILES),Activity
1,C=C1CC[C@H](C(C)C)[C@@H]2[C@H]1[C@@H]1O[C@H]2[C@](C)(OC(=O)CCC)CC[C@H](O)[C@@](C)(O)[C@H]1O [LITOPHYNOL B],Toxic
2,C=C1CC[C@H](C(C)C)[C@@H]2[C@H]1[C@H]1C[C@](C)(O)[C@@H](O)CC[C@@](C)(OC(=O)CCC)[C@@H]2O1 [LITOPHYNIN E],Toxic
3,C=C1CC[C@H](C(C)C)[C@@H]2[C@H]1[C@@H]1O[C@H]2[C@](C)(OC(=O)CCC)CC[C@H](O)C(=C)[C@H]1O [LITOPHYNOL A],Toxic
4,C=C1[C@@H]2[C@H]([C@H](C(C)C)C[C@H]1OC(C)=O)[C@@H]1O[C@H]2C[C@](C)(O)[C@H](O)CC[C@@]1(C)OC(=O)CCC [LITOPHYNIN I MONOACETATE],Toxic
